Results published in PMC8066774, “Binding and Action of Triphenylphosphonium Analog of Chloramphenicol upon the Bacterial Ribosome” (Antibiotics, 2021).

Legend:
[1] = tested on: E. coli 70S ribosomes; assay: Direct equilibrium binding of BODIPY-CAM measured by fluorescence anisotropy; details: BODIPY-CAM 4 nM, ribosomes 5 nM to 5 µM, 30 min; read-out: Apparent dissociation constant KDapp, direct equilibrium binding
Description: The apparent dissociation constant of BODIPY-CAM (KDapp = 3.5 ± 0.9 µM) was determined by its direct equilibrium binding to E. coli 70S ribosomes (Figure S1B). A solution of BODIPY-CAM (4 nM) in the buffer containing 20 mM HEPES-KOH (pH 7.5), 50 mM NH4Cl, 10 mM Mg(CH3COO)2, 4 mM β-mercaptoethanol, and 0.05% Tween-20 was mixed with ribosomes in the range of concentrations from 5 nM to 5 μM, incubated for 30 min, and the values of fluorescence anisotropy were measured.
Chen C.- W. et al. Supplementary Inform ation P age | 6of 10 […]
Fi g u re S1. Binding of BODIPY-CAM to E. coli 70S ribosomes measu re d b y f lu orescence an isot rop y.
(A) Chemical structure of fluorescent analog of chloramphenicol BODIPY-CAM. (B) Equilibrium binding isotherm of BODIPY-CAM to E. coli 70S ribosomes.Non -linear regression anal ysis of obt ained data yi elded an apparent dissociation constant of BO D IP Y -CAM ( KDapp = 3.5 ± 0.9 µM).
(1 picture or pasted object on this page, not shown here)

[2] = tested on: E. coli BW25113 ΔtolC pDualRep2 reporter strain; assay: In vivo dual-reporter (pDualrep2) assay on agar plate: Katushka2S / RFP induction and growth inhibition zone; format: cell-based; details: overnight 37 °C; for Induction of fluorescent reporters (Katushka2S = ribosome stalling; RFP = DNA damage/SOS response): drops of DMSO solutions (CAM-C4-TPP 20 mM, C4-TPP 20 mM, CAM 2 mM, CHL 2 mM, ERY 6.8 mM, LEV 69 nM)
Source text: Since CAM-C4-TPP is a semi-synthetic analog of the PTC-targeting antibiotic CHL, we expected that, similar to CHL, CAM-C4-TPP would also bind and act upon the bacterial ribosome inhibiting protein synthesis. However, we could not rule out the possibility that the presence of the additional TPP group could alter the intracellular target of the CAM-C4-TPP molecule. To check whether protein synthesis remains the primary target of CAM-C4-TPP action in the bacterial cells, we used an E. coli-based in vivo reporter system that is designed for screening of inhibitors targeting either DNA replication or protein synthesis.
(§1) Figure 2 CAM-C4-TPP is a potent inhibitor of protein synthesis both in vivo and in vitro. (A) In vivo testing of CAM-C4-TPP activity using E. coli BW25113 ΔtolC pDualRep2 reporter strains. The induction of the red fluorescent protein (RFP) expression (green halo around the inhibition zone) is triggered by DNA-damage, while the induction of Katushka2S protein (red halo) occurs in response to ribosome stalling. Levofloxacin (LEV), erythromycin (ERY), and chloramphenicol (CHL) are used as controls. This image is an overlay of the two images from the independent detections of RFP (Cy3 mode) or Ktushka2S (Cy5 mode) by ChemiDoc MP (Bio-Rad) with RFP fluorescence shown in green pseudocolor and Katushka2S fluorescence shown in red pseudocolor. (B,C) Competition-binding assay to test the displacement of fluorescently labeled BODIPY-CAM (B) or BODIPY-ERY (C) analogs from the E. coli 70S ribosomes in the presence of increasing concentrations of CAM (open diamonds), CHL (blue squares), or CAM-C4-TPP (red circles) measured by fluorescence anisotropy. All reactions were repeated three times. Error bars represent standard deviation. ND, no displacement. The resulting values for apparent dissociation constants (KDapp) are shown on each plot. (D) Inhibition of protein synthesis by increasing concentrations of CHL (blue squares) or CAM-C4-TPP (red circles) in the in vitro cell-free transcription-translation coupled system. The relative enzymatic activity of in vitro synthesized firefly luciferase is shown. Error-bars represent standard deviations of the mean of three independent measurements. TEXT PRINTED IN THE PICTURE: (D) CHL: IC50, μM: 2.8±0.5 | (D) CAM-C4-TPP: IC50, μM: 0.9±0.2 | (B) CAM: KDApp, μM: 420±240 | (B) CHL: KDApp, μM: 2.6±1.5 | (B) CAM-C4-TPP: KDApp, μM: 0.6±0.4 | (C) CAM: KDApp, μM: ND | (C) CHL: KDApp, μM: 2.8±0.5 | (C) CAM-C4-TPP: KDApp, μM: 0.61±0.07
For the in vivo bioactivity test (Figure 2A), we used the reporter strain BW25113ΔtolC-pDualrep2 as described previously. Briefly, 1.5 µL of the solutions of CAM-C4-TPP (20 mM), C4-TPP (20 mM), CAM (2 mM), and 1 µL of the solutions of CHL (2 mM), erythromycin (ERY, 6.8 mM), and levofloxacin (LEV, 69 nM) in DMSO were applied onto the agar plate that already contained a lawn of the reporter strain. After overnight incubation at 37 °C, the plate was scanned by ChemiDoc (Bio-Rad, USA) using “Cy3-blot” mode for RFP fluorescence and “Cy5-blot” mode for Katushka2S fluorescence.

[3] = tested on: E. coli 70S ribosomes; assay: Competition-binding assay, displacement of BODIPY-CAM measured by fluorescence anisotropy; details: for Kd: BODIPY-CAM 30 nM, ribosomes 2.9 µM, 25 °C, pH 7.5, n=3, read-out: Apparent dissociation constant KDapp, displacement of BODIPY-CAM
Source text: (§2) Figure 2 CAM-C4-TPP is a potent inhibitor of protein synthesis both in vivo and in vitro. (A) In vivo testing of CAM-C4-TPP activity using E. coli BW25113 ΔtolC pDualRep2 reporter strains. The induction of the red fluorescent protein (RFP) expression (green halo around the inhibition zone) is triggered by DNA-damage, while the induction of Katushka2S protein (red halo) occurs in response to ribosome stalling. Levofloxacin (LEV), erythromycin (ERY), and chloramphenicol (CHL) are used as controls. This image is an overlay of the two images from the independent detections of RFP (Cy3 mode) or Ktushka2S (Cy5 mode) by ChemiDoc MP (Bio-Rad) with RFP fluorescence shown in green pseudocolor and Katushka2S fluorescence shown in red pseudocolor. (B,C) Competition-binding assay to test the displacement of fluorescently labeled BODIPY-CAM (B) or BODIPY-ERY (C) analogs from the E. coli 70S ribosomes in the presence of increasing concentrations of CAM (open diamonds), CHL (blue squares), or CAM-C4-TPP (red circles) measured by fluorescence anisotropy. […]
The amphenicol moieties of CAM-C4-TPP, its parent CHL, and the fluorescent derivative BODIPY-CAM are expected to have identical ribosome binding sites and, therefore, these compounds are expected to compete with each other for binding to the ribosome. […] The apparent dissociation constants KDapp of CHL determined from the displacement of BODIPY-CAM (2.6 ± 1.5 µM) or BODIPY-ERY (2.8 ± 0.5 µM) are consistent with each other and with the previously published data, including data determined by direct [^14C]-CHL binding (2.3 µM [30]). […]
(§3) Binding affinities of CHL analog CAM-C4-TPP, as well as other tested compounds, for the E. coli ribosome (Figure 2B,C) were analyzed by a competition-binding assay using fluorescently labeled BODIPY-CAM or BODIPY-ERY as described before. […]
Solutions of CHL, CAM, CAM-C4-TPP, or C4-TPP in different concentration ranges were added to the pre-formed ribosome/BODIPY-CAM or ribosome/BODIPY-ERY complexes. The mixtures were incubated for 2 h until equilibrium was reached and the values of fluorescence anisotropy were measured. […]

[4] = tested on: E. coli 70S ribosomes; assay: Competition-binding assay, displacement of BODIPY-ERY measured by fluorescence anisotropy; details: BODIPY-ERY 16 nM, ribosomes 50 nM, 25 °C, pH 7.5, n=3; read-out: Apparent dissociation constant KDapp, displacement of BODIPY-ERY
Source text: as §2, with “anisotropy. All reactions were repeated three times. Error bars represent standard deviation. ND, no displacement.” for “anisotropy.”
as §3

[5] = tested on: cell-free transcription-translation system based on the E. coli S30 extract; assay: In vitro cell-free transcription-translation inhibition assay, firefly luciferase synthesis; format: biochemical; details: for IC50 / Concentration at which nearly complete inhibition of protein synthesis was observed: E. coli S30 extract; for IC50: 37 °C, 30 min, n=3; for Concentration at which nearly complete inhibition of protein synthesis was observed: firefly luciferase
Source text: as §1
To check whether the improved binding of CAM-C4-TPP to the ribosome correlates with stronger inhibition of translation, we tested its ability to interfere with in vitro protein synthesis. […] Thus, CAM-C4-TPP provides a promising foundation for future ribosome-targeting drug development.
In vitro assessment of inhibition of synthesis of firefly luciferase by the tested compounds (Figure 2D) was accomplished as described previously. Briefly, the in vitro transcribed firefly luciferase mRNA was translated using E. coli S30 Extract System for Linear Templates (Promega, USA). Reactions containing 100 ng of mRNA and […] 0.1 mM of D-luciferin from the Steady-Glo Luciferase Assay System (Promega) were preincubated for 5 min with different concentrations (0.5 µM, 1 µM, 5 µM, 10 µM, 30 µM, 50 µM, 100 µM) of the tested compounds and carried out in 5-µL aliquots at 37 °C for 30 min. The activity of in vitro synthesized luciferase was measured by VICTOR X5 Multilabel Plate Reader (Perkin Elmer, USA) every 30 s. Calculations of the IC50 values for the tested compounds were carried out using GraphPad Prism software.

[6] = tested on: ribosome stalling on rst1 and rst2 mRNAs; assay: Toe-printing (primer extension inhibition) on rst1 and rst2 mRNAs in a cell-free translation system; format: biochemical; details: 30 µM compound
Source text: The inhibition of protein synthesis by the PTC-targeting antibiotics depends on the amino-acid sequence of the nascent polypeptide chain and the identity of the incoming aminoacyl-tRNA in the A site of the ribosome. For example, CHL arrests translation only when alanine, and to a lesser extent, serine or threonine appear in the penultimate position (E site) of the growing polypeptide chain and only if there is no glycyl-tRNA in the A site of the ribosome. […] This method allows unambiguous identification of the drug-induced ribosome stalling site along the mRNA with a single nucleotide precision. This technique also allows for the determination of the context-specificity of drug action. A large set of ribosome-targeting antibiotics has been previously tested by toe-printing using rst1 or rst2 mRNAs as templates, because their sequences contain codons for almost all proteinogenic amino acids. Therefore, in order to be able to directly compare our results for CAM-C4-TPP with those for other antibiotics, we have chosen exactly the same experimental system.
Nevertheless, in the presence of CAM-C4-TPP, a fraction of ribosomes manages to escape the start codon, continues translation, and stalls at later codons within the ORF (Figure 6A,B, lanes 3 and 6).
Figure 6 CAM-C4-TPP is capable of arresting translation at the start codon. […]

[7] = target: ribosome; parameters: method as in PMID 4563072; details: read-out: Dissociation constant by direct [14C]-CHL binding; cited from earlier work

Structure (SMILES): CC1=CC(C)=[N+]2C1=Cc1ccc(CCCCC(=O)NC(CO)C(O)c3ccc([N+](=O)[O-])cc3)n1[B-]2(F)F (centres unmarked) [BODIPY-CAM]
- Kd [1]: 3500 ± 900 nM

Structure (SMILES): O=C(CCCC[P+](c1ccccc1)(c1ccccc1)c1ccccc1)N[C@H](CO)[C@H](O)c1ccc([N+](=O)[O-])cc1 [CAM-C4-TPP]
- Induction of fluorescent reporters (Katushka2S = ribosome stalling; RFP = DNA damage/SOS response) [2]: the expression of the fluorescent protein Katushka2S, but not of RFP, was strongly activated
- Kd [3]: 600 ± 400 nM
- Fold higher affinity for the ribosome compared to parent CHL ([3]; both displacement assays (BODIPY-CAM and BODIPY-ERY)): ~ 5 fold
- Kd [4]: 610 ± 70 nM
- IC50 [5]: 900 ± 200 nM
- Concentration at which nearly complete inhibition of protein synthesis was observed [5]: ~ 10 µM
- Fold better IC50 compared to CHL ([5]; in vitro translation of firefly luciferase): more than 3 fold
- Drug-induced ribosome stalling sites (toe-printing) [6]: causes a significant portion of the ribosomes to stall at the initiator codons

Structure (SMILES): C[C@H]1COc2c(N3CCN(C)CC3)c(F)cc3c(=O)c(C(=O)O)cn1c23 [levofloxacin]
- Induction of fluorescent reporters (Katushka2S = ribosome stalling; RFP = DNA damage/SOS response) [2]: induce expression of Red Fluorescent Protein (RFP) reporter

Structure (SMILES): CC[C@H]1OC(=O)[C@H](C)[C@@H](O[C@H]2C[C@@](C)(OC)[C@@H](O)[C@H](C)O2)[C@H](C)[C@@H](O[C@@H]2O[C@H](C)C[C@H](N(C)C)[C@H]2O)[C@](C)(O)C[C@@H](C)C(=O)[C@H](C)[C@@H](O)[C@]1(C)O [erythromycin]
- Induction of fluorescent reporters (Katushka2S = ribosome stalling; RFP = DNA damage/SOS response) [2]: induce expression of far-red fluorescent protein reporter Katushka2S

Structure (SMILES): O=C(O)CCCC[P+](c1ccccc1)(c1ccccc1)c1ccccc1.[Br-] [C4-TPP, (4-Carboxybutyl)triphenyl-phosphonium bromide]
- Bacterial cell growth inhibition (inhibition zone) ([2]; 1.5 µL of C4-TPP 20 mM or CAM 2 mM): inhibits bacterial cell growth
- Induction of fluorescent reporters (Katushka2S = ribosome stalling; RFP = DNA damage/SOS response) [2]: does not induce any of the two reporters

Structure (SMILES): O=C(N[C@H](CO)[C@H](O)c1ccc([N+](=O)[O-])cc1)C(Cl)Cl [CHL, chloramphenicol]
- Induction of fluorescent reporters (Katushka2S = ribosome stalling; RFP = DNA damage/SOS response) [2]: induce expression of far-red fluorescent protein reporter Katushka2S
- Kd [3]: 2600 ± 1500 nM
- Kd [4]: 2800 ± 500 nM
- IC50 [5]: 2800 ± 500 nM
- Concentration at which nearly complete inhibition of protein synthesis was observed [5]: ~ 10 µM
- Drug-induced ribosome stalling sites (toe-printing) [6]: predominant ribosome stalling when the 6th serine (Ser6) or 4th alanine (Ala4) residues appeared in the penultimate position
- Kd [7]: 2300 nM
